Experimental data: article PMC4113732, “Novel Preclinical and Radiopharmaceutical Aspects of [^68Ga]Ga-PSMA-HBED-CC: A New PET Tracer for Imaging of Prostate Cancer” (Pharmaceuticals, 2014)

Molecular target: T1, prostate-specific membrane antigen (PSMA) (Homo sapiens, UniProt Q04609)
T1 construct: gene FOLH1
Experiment: competitive radioligand binding on intact PSMA-expressing LNCaP cells against [^[…]]Ga-PSMA-HBED-CC
Assay type: cell-based

T1 sequence (Q04609 whole entry): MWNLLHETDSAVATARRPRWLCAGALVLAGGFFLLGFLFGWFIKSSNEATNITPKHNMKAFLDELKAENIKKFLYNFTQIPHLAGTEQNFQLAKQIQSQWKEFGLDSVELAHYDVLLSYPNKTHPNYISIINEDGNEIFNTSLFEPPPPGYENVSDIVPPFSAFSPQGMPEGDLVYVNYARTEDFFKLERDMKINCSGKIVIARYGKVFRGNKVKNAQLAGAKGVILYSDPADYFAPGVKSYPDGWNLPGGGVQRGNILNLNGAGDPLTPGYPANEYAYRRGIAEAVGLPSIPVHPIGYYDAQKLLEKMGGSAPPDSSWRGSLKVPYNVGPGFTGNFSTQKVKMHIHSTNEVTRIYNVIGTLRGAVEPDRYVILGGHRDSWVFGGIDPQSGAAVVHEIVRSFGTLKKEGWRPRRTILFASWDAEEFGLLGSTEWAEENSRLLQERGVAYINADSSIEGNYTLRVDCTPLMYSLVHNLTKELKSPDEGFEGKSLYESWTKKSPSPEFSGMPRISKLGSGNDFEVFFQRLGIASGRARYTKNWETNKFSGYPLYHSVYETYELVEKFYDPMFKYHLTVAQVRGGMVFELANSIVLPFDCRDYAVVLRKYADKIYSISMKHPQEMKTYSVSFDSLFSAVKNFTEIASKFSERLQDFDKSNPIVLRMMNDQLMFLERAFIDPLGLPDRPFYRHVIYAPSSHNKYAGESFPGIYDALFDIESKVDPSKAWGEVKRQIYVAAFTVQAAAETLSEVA

## O=C(O)CCc1ccc2c(c1)CN1CCN(CC(=O)O)Cc3cc(CCC(=O)NCCCCCC(=O)NCCCC[C@H](NC(=O)N[C@@H](CCC(=O)O)C(=O)O)C(=O)O)ccc3[O][Ga]([O]C(=O)C1)[O]2 [[^natGa]Ga-PSMA-HBED-CC]
  IC50: 24.8 ± 1.2 nM
